Patent publication US9181235B2, “Substituted pyridines for modulating the WNT signaling pathway” (NOVARTIS AG, priority 2010, dated 2015)

These molecules were tested on Wnt signaling (assay: Wnt-Luc reporter assay for pathway inhibition of Wnt signaling). Conditions: Wnt-Luc reporter cells co-cultured with L-cell Wnt3a cells, 24 hours, luciferase signal reduced by 50%.
Format: cell-based, mouse (TM3 Wnt-Luc) or human (293 Wnt-Luc); not stated which
Procedure: This example provides a method that is useful for evaluating test compounds for inhibition of Wnt signaling.
Mouse leydig cell TM3 cells (obtained from American Type Culture Collection, ATCC, Manassas, Va.) are cultured in 1:1 mixture of Ham's F12 medium and Dulbecco's modified Eagle's medium (Gibco/Invitrogen, Carlsbad, Calif.) supplemented with 2.5% FBS (Gibco/Invitrogen, Carlsbad, Calif.) and 5% horse serum (Gibco/Invitrogen, Carlsbad, Calif.), 50 unit/mL penicillin and 50 μg/mL of streptomycin (Gibco/Invitrogen, Carlsbad, Calif.) at 37° C. with 5% CO2 in air atmosphere. TM3 cells in a 10 cm dish are co-transfected with 8 μg of STF-reporter plasmid containing a luciferase gene driven by Wnt-responsive elements and 2 μg of pcDNA3.1-Neo (Gibco/Invitrogen, Carlsbad, Calif.) with 30 μL of FuGENE6 (Roche Diagnostics, Indianapolis, Ind.) following the manufacturer's protocol. Stable cell lines (TM3 Wnt-Luc) were selected with 400 μg/mL of G418 (Gibco/Invitrogen, Carlsbad, Calif.). The TM3 Wnt-Luc cells and L-cell Wnt3a cells (obtained from American Type Culture Collection, ATCC, Manassas, Va.; cultured in Dulbecco's modified Eagle's medium (Gibco/Invitrogen, Carlsbad, Calif.) supplemented with 10% FBS (Gibco/Invitrogen, Carlsbad, Calif.) and 50 unit/mL penicillin and 50 μg/mL of streptomycin (Gibco/Invitrogen, Carlsbad, Calif.) at 37° C. with 5% CO2 in air atmosphere) are trypsinized and co-cultured into a 384-well plate with DMEM medium supplemented with 2% FBS, and treated with different concentrations of a compound of the invention. After 24 hours, the firefly luciferase activities are assayed with the Bright-Glo™ Luciferase Assay System (Promega, Madison, Wis.). The IC50 is measured when the effect of the compound reduces the luminescence signal by 50%.
This example provides another method that is useful for evaluating test compounds for inhibition of Wnt signaling.
Human embryonic kidney 293 cells (obtained from American Type Culture Collection, ATCC, Manassas, Va.) are cultured in DMEM medium (Gibco/Invitrogen, Carlsbad, Calif.) supplemented with 10% FBS (Gibco/Invitrogen, Carlsbad, Calif.), 50 unit/mL penicillin and 50 μg/mL of streptomycin (Gibco/Invitrogen, Carlsbad, Calif.) at 37° C. with 5% CO2 in air atmosphere. 293 cells in a 10 cm dish are co-transfected with 8 μg of STF-reporter plasmid containing a luciferase gene driven by Wnt-responsive elements and 2 μg of pcDNA3.1-Neo (Gibco/Invitrogen, Carlsbad, Calif.) with 30 μL of FuGENE6 (Roche Diagnostics, Indianapolis, Ind.) following the manufacturer's protocol. Stable cell lines (293 Wnt-Luc) were selected with 400 μg/mL of G418 (Gibco/Invitrogen, Carlsbad, Calif.). The 293 Wnt-Luc cells and L-cell Wnt3a cells (obtained from American Type Culture Collection, ATCC, Manassas, Va.) are trypsinized and co-cultured into a 384-well plate with DMEM medium supplemented with 2% FBS, and treated with different concentrations of a compound of the invention. After 24 hours, the firefly luciferase activities are assayed with the Bright-Glo™ Luciferase Assay System (Promega, Madison, Wis.). The IC50 is measured when the effect of the compound reduces the luminescence signal by 50%.

First: Cc1cc(-c2ncc(CNC(=O)c3ccc(-c4cnccn4)cn3)cc2F)ccn1 [compound 60, N-{[5-fluoro-6-(2-methylpyridin-4-yl)pyridin-3-yl]methyl}-5-(pyrazin-2-yl)pyridine-2-carboxamide]
Second: Cc1cc(-c2ncc(CNC(=O)c3ccc(-c4cnccn4)cn3)cc2C)ccn1 [compound 63, N-((2′,3-dimethyl-2,4′-bipyridin-5-yl)methyl)-5-(pyrazin-2-yl)picolinamide]
The IC50 of the first is 9.6-fold lower: 0.26 nM for the first, 2.5 nM for the second. The first is the more potent here.

Going from Cc1cc(-c2ncc(CNC(=O)c3ccc(-c4cnccn4)nc3)cc2F)ccn1 [compound 61, N-{[5-fluoro-6-(2-methylpyridin-4-yl)pyridin-3-yl]methyl}-6-(pyrazin-2-yl)pyridine-3-carboxamide] to O=C(NCc1cnc(-c2ccnc(C(F)(F)F)c2)c(F)c1)c1ccc(-c2cnccn2)cn1 [compound 85, N-({5-fluoro-6-[2-(trifluoromethyl)pyridin-4-yl]pyridin-3-yl}methyl)-5-(pyrazin-2-yl)pyridine-2-carboxamide], the IC50 falls from 0.62 nM to 0.22 nM (2.8-fold).

Going from CC(=O)N1CCN(c2ccc(C(=O)NCc3cnc(-c4ccnc(C)c4)c(F)c3)nc2)CC1 [compound 62, 5-(4-acetylpiperazin-1-yl)-N-{[5-fluoro-6-(2-methylpyridin-4-yl)pyridin-3-yl]methyl}pyridine-2-carboxamide] to CC(=O)N1CCN(c2ccc(C(=O)NCc3cnc(-c4ccnc(C(F)(F)F)c4)c(F)c3)nc2)CC1 [compound 84, 5-(4-Acetylpiperazin-1-yl)-N-((3-fluoro-2′-(trifluoromethyl)-2,4′-bipyridin-5-yl)methyl)picolinamide], the IC50 falls from 11.8 nM to 2.7 nM (4.4-fold). The second is the more potent here.

Compared with Cc1c(F)cccc1-c1ccc(C(=O)NCc2ccc(-c3ccnc(C(F)(F)F)c3)nc2)nc1 [compound 64, 5-(3-fluoro-2-methylphenyl)-N-({6-[2-(trifluoromethyl)pyridin-4-yl]pyridin-3-yl}methyl)pyridine-2-carboxamide], Cc1ccc(F)cc1-c1ccc(C(=O)NCc2ccc(-c3ccnc(C(F)(F)F)c3)nc2)nc1 [compound 65, 5-(5-fluoro-2-methylphenyl)-N-({6-[2-(trifluoromethyl)pyridin-4-yl]pyridin-3-yl}methyl)pyridine-2-carboxamide] is 1.9-fold lower in IC50: 11 nM for the first, 5.8 nM for the second. The second is the more potent here.

First: Cc1cc(CNC(=O)c2ccc(-c3cnccn3)cn2)cnc1-c1cc[nH]c(=O)c1 [compound 66, N-((5-Methyl-6-(2-oxo-1,2-dihydropyridin-4-yl)pyridin-3-yl)methyl)-5-(pyrazin-2-yl)picolinamide]
Second: O=C(NCc1cnc(-c2ccnnc2)c(F)c1)c1ccc(-c2cnccn2)cn1 [compound 71, N-{[5-fluoro-6-(pyridazin-4-yl)pyridin-3-yl]methyl}-5-(pyrazin-2-yl)pyridine-2-carboxamide]
The IC50 of the first is 18-fold higher: 45 nM for the first, 2.5 nM for the second. The second is the more potent here.

Cc1ncccc1-c1ccc(C(=O)NCc2ccc(-c3ccnc(C(F)(F)F)c3)nc2)nc1 [compound 67, 5-(2-methylpyridin-3-yl)-N-({6-[2-(trifluoromethyl)pyridin-4-yl]pyridin-3-yl}methyl)pyridine-2-carboxamide] and Cc1cccnc1-c1ccc(C(=O)NCc2ccc(-c3ccnc(C(F)(F)F)c3)nc2)nc1 [compound 73, 5-(3-methylpyridin-2-yl)-N-({6-[2-(trifluoromethyl)pyridin-4-yl]pyridin-3-yl}methyl)pyridine-2-carboxamide] are the same in IC50: 6 nM for the first, 6 nM for the second.

Going from O=C(NCc1ccc(N2CCS(=O)(=O)CC2)nc1)c1ccc(-c2cnccn2)cn1 [compound 68, N-((6-(1,1-dioxidothiomorpholino)pyridin-3-yl)methyl)-5-(pyrazin-2-yl)picolinamide] to O=C(NCc1ccc(N2CCS(=O)(=O)CC2)nc1)c1ccc(-c2cnccn2)nc1 [compound 69, N-((6-(1,1-dioxidothiomorpholino)pyridin-3-yl)methyl)-6-(pyrazin-2-yl)nicotinamide], the IC50 rises from 38 nM to 88 nM (2.3-fold). The first is the more potent here.

Compared with Cc1cc(C(=O)NCc2cnc(-c3ccnc(C(F)(F)F)c3)c(C)c2)ccc1-c1ncccc1C [compound 70, 3-methyl-N-({5-methyl-6-[2-(trifluoromethyl)pyridin-4-yl]pyridin-3-yl}methyl)-4-(3-methylpyridin-2-yl)benzamide], Cc1cc(C(=O)NCc2cnc(-c3ccnc(C(F)(F)F)c3)c(C)c2)ccc1-c1cnccn1 [compound 78, 3-methyl-N-({5-methyl-6-[2-(trifluoromethyl)pyridin-4-yl]pyridin-3-yl}methyl)-4-(pyrazin-2-yl)benzamide] is 2.1-fold lower in IC50: 27 nM for the first, 13 nM for the second.

First: O=C(NCc1ccc(-c2ccnc(C(F)(F)F)c2)nc1)c1ccc(-c2ccc(N3CCCC3=O)nc2)cn1 [compound 72, 6′-(2-Oxopyrrolidin-1-yl)-N-((2′-(trifluoromethyl)-[2,4′-bipyridin]-5-yl)methyl)-[3,3′-bipyridine]-6-carboxamide]
Second: Cc1cccnc1-c1ccc(C(=O)NCc2cnc(-c3ccnc(C(F)(F)F)c3)c(C)c2)nc1 [compound 74, N-({5-methyl-6-[2-(trifluoromethyl)pyridin-4-yl]pyridin-3-yl}methyl)-5-(3-methylpyridin-2-yl)pyridine-2-carboxamide]
The IC50 of the first is 17-fold lower: 1.9 nM for the first, 32 nM for the second. The first is the more potent here.

First: Cc1cc(-c2ncc(CNC(=O)c3ccc(-c4ncccc4C)cn3)cc2F)ccn1 [compound 75, N-{[5-fluoro-6-(2-methylpyridin-4-yl)pyridin-3-yl]methyl}-5-(3-methylpyridin-2-yl)pyridine-2-carboxamide]
Second: Cc1cc(-c2ncc(CNC(=O)c3ccc(-c4cc(F)ccc4C)cn3)cc2F)ccn1 [compound 76, 5-(5-fluoro-2-methylphenyl)-N-{[5-fluoro-6-(2-methylpyridin-4-yl)pyridin-3-yl]methyl}pyridine-2-carboxamide]
The IC50 of the first is 5.8-fold higher: 6.9 nM for the first, 1.2 nM for the second.

Compared with Cc1ccc(F)cc1-c1ccc(C(=O)NCc2cnc(-c3ccnc(C(F)(F)F)c3)c(C)c2)nc1 [compound 77, 5-(5-fluoro-2-methylphenyl)-N-({5-methyl-6-[2-(trifluoromethyl)pyridin-4-yl]pyridin-3-yl}methyl)pyridine-2-carboxamide], Cc1cc(-c2ncc(CNC(=O)c3ccc(-c4cc(F)ccc4C)cn3)cc2C)ccn1 [compound 80, 5-(5-fluoro-2-methylphenyl)-N-{[5-methyl-6-(2-methylpyridin-4-yl)pyridin-3-yl]methyl}pyridine-2-carboxamide] is 1.5-fold lower in IC50: 6.3 nM for the first, 4.2 nM for the second. The second is the more potent here.

Cc1cc(C(=O)NCc2cnc(-c3ccnc(C(F)(F)F)c3)c(C)c2)ncc1-c1cnccn1 [compound 79, 4-methyl-N-({5-methyl-6-[2-(trifluoromethyl)pyridin-4-yl]pyridin-3-yl}methyl)-5-(pyrazin-2-yl)pyridine-2-carboxamide] and Cc1cc(C(=O)NCc2cnc(-c3ccnc(C(F)(F)F)c3)c(C)c2)ncc1-c1cccc(F)c1 [compound 83, 5-(3-fluorophenyl)-4-methyl-N-({5-methyl-6-[2-(trifluoromethyl)pyridin-4-yl]pyridin-3-yl}methyl)pyridine-2-carboxamide] are within 1.5-fold of each other in IC50: 982 nM for the first, 812 nM for the second.

Cc1cc(-c2cnc(CNC(=O)c3ccc(-c4cnccn4)cn3)c(C)c2)ccn1 [compound 81, N-((2′,5-dimethyl-3,4′-bipyridin-6-yl)methyl)-5-(pyrazin-2-yl)picolinamide] and Cc1cc(-c2cnc(CNC(=O)c3ccc(-c4cnccn4)cn3)cc2C)ccn1 [compound 86, N-{[4-methyl-5-(2-methylpyridin-4-yl)pyridin-2-yl]methyl}-5-(pyrazin-2-yl)pyridine-2-carboxamide] are within 1.5-fold of each other in IC50: 20 nM for the first, 17 nM for the second.

Cc1cc(C(=O)NCc2cnc(-c3ccnc(C(F)(F)F)c3)c(C)c2)ncc1-c1cc(F)ccc1C [compound 82, 5-(5-fluoro-2-methylphenyl)-4-methyl-N-({5-methyl-6-[2-(trifluoromethyl)pyridin-4-yl]pyridin-3-yl}methyl)pyridine-2-carboxamide] showed an IC50 of 441 nM.
